Experiments:
[1] = test system: transformed DRE/AhR/ARNT complex; assay: size exclusion column of DRE/AhR/ARNT complex followed by SDS-PAGE western blot; assay type: biochemical, guinea pig (hepatic cytosol)
Procedure: Size-exclusion column: 10 mL bed volume sephacryl S-100-HR (Sigma, St. Louis, Mo.) packed in Econopac column (Biorad cat. no. 732-1010), equilibrated in HEDG plus 200 mM NaCl. Column was hooked up to a peristaltic pump. Flow rate was 0.5 mL/min. The size exclusion column outlet was attached to a HPLC fluorimeter set at excitation 494 nm and emmission 520 nm to detect fluorescein. DRE used was F-ERD oligo (SEQ. ID. #4) and DRE-D oligo (SEQ. ID. #1) hybridized as described above. Cytosol was prepared as described above. Cytosol was dosed with 1:1000 v/v DMSO (-) or 1:1000 v/v 10 uM 2,3,7,8-tetrachlorodibenzo-p-dioxin in DMSO (+).
Samples were incubated for 2 hours at room temperature as described above to achieve transformation/binding events then put on ice. The entire A sample was loaded onto the Size Exclusion Column and chromatography developed at a flow rate of 0.5 ml/min. Eluant fractions were collected at 2 min intervals (1 mL/fraction). The protocol was repeated for samples B,C,D.
The fluorimeter readings went offscale and usable readings for the fluorescent DRE were not possible. 200 uL subaliquots of fractions 3-10 were submitted to Sodium Dodecyl Sulfate--PolyAcrylamide Gel Electrophoresis (SDS-PAGE) followed by western blotting. Blots of fractions from samples A and B were probed with anti-ARNT (1:200) and anti-rabbit/alkaline phosphatase (1: 1000) and developed with BCIP/NBT. […]

[2] = target: transformed Ah receptor/ARNT complex (Cavia porcellus, UniProt Q6J287); assay: sandwich ELISA detecting transformed Ah receptor/ARNT complex, DRE and anti-ARNT dilutions; assay type: biochemical, guinea pig (hepatic cytosol); parameters: from tissue; host or cells: hepatic cytosol of male Hartley guinea pigs (animals from Cornell Research Animal Resources)
Chain of transformed Ah receptor/ARNT complex (Q6J287 1-846): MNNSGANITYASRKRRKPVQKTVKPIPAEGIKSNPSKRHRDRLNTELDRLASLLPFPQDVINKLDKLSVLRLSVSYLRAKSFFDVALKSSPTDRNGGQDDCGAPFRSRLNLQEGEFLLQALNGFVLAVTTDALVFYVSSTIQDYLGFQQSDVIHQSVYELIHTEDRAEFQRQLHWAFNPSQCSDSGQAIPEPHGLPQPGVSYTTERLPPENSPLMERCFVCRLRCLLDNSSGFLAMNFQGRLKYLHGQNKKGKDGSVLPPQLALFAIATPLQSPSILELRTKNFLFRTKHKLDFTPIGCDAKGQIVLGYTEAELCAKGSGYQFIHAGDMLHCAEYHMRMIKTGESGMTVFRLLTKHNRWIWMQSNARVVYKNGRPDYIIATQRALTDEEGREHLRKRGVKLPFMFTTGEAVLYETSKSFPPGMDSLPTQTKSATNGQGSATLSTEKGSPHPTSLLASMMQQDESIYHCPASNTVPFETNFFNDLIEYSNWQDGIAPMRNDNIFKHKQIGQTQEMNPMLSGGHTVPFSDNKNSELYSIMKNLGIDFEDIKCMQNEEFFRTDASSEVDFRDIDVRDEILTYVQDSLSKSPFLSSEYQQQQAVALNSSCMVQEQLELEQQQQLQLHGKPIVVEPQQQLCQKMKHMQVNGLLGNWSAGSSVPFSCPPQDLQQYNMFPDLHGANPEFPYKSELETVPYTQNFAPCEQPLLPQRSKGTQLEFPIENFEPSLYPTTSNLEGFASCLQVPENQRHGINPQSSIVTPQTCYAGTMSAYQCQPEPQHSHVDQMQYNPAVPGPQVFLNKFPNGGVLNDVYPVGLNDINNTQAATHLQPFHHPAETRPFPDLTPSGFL
Chain of transformed Ah receptor/ARNT complex (Q0WXX3 1-790 partner): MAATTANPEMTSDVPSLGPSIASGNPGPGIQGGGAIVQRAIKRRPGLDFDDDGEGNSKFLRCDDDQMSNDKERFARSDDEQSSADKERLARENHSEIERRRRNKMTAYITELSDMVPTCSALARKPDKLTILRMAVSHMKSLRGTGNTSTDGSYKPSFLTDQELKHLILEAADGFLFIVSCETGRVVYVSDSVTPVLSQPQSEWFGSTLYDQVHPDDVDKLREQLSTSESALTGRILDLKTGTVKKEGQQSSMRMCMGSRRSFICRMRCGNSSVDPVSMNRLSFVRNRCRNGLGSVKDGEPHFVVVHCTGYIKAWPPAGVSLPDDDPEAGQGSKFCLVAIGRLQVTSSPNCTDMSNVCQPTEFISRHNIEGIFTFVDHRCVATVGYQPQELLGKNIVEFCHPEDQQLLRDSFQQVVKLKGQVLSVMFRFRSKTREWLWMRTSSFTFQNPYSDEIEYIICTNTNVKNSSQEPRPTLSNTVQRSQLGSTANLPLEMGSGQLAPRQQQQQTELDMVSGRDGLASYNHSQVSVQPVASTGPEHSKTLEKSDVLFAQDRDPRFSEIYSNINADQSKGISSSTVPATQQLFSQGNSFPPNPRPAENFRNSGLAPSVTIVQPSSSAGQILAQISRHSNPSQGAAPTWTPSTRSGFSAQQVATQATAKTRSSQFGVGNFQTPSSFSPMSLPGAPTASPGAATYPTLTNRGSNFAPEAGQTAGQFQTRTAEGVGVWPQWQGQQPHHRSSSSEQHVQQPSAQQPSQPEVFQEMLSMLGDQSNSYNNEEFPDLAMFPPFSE
Procedure: Working dilution of anti-ARNT was diluted (1:200, 50 uL in 10 mL) in PBS plus 0.02% tween 20 plus 0.1% bovine serum albumin. Working dilution of anti-Rabbit/alkaline phosphatase (Sigma, St. Louis, Mo.) was prepared by diluting 20 uL into 20 mL PBS plus 0.02% tween 20 plus 0.1% bovine serum albumin to make a 1:1000 dilution. Diethanolamine buffer was prepared by dissolving 0.4 g Magnesium chloride hexahydrate, 0.8 g sodium azide, 338 mL diethanolamine in 2.5 L deionized water, adjusting pH to 9.8 with concentrated HCl, and adjusting volume to 4 liters. PnPP stock was prepared fresh by dissoving two 15 mg tablets of para-nitro phenyl phosphate (Sigma, St. Louis, Mo.) in 20 mL diethanolamine buffer.
B-DRE (sequence ID 2) and DRE-D (sequence ID 1) were hybridized as described above. Cytosol was prepared as described above. Thirty five mL of cytosol was thawed and pooled. The cytosol was divided into two 17 mL aliquots and treated with either 17 uL DMSO, sample labled (-) or 17 uL 10 uM TCDD in DMSO with the sample labled (+). DMSO-treated cytosol (1700 uL) was mixed with 10.6 uL hybridized DRE (sample labeled B-). TCDD-treated cytosol (1700 uL) was mixed with 10.6 uL hybridized DRE (sample labeled B+).
A neutravidin-coated 96 well ELISA plate (Pierce), with the standard 12×8 well matrix, labeled 1-12 horizontally and A-H vertically, was warmed to room temperature. DMSO treated cytosol (-) was put in wells A2-A12 x D2-D12 at 200 uL per well. TCDD treated cytosol (+) was put in wells E2-E12 x H2-H12 at 200 uL per well. Untreated Cytosol plus DRE sample (B-), 400 uL per well, was put in wells A1-D1. Treated Cytosol sample plus DRE (13+), 400 uL per well, was put in wells […]. The Untreated cytosol plus DRE sample (B-) and treated cytosol sample plus DRE (B+) were then serially diluted 1:1 across the plate, resulting in a serial dilution of DRE in either 200 uL treated or 200 uL untreated cytosol. The last column (A12H12) contained 400 uL, so 200 uL of that was discarded. Highest dilution of DRE in column A1-H1 was arbitrarily called 1, with the other dilutions labeled 0.5, 0.25 . . . 0.0005 respectively.
The ELISA plate was incubated with gentle rocking for 2 hours to allow the transformaton of Ah receptor, binding of Ah receptor with ARNT, and binding of the Ah receptor/ARNT complex to the biotinylated DRE, and binding of the biotinylated DRE to the neutravidin bound to the ELISA plate.
After 2 hours the plate was washed 3 times with 300 uL PBS plus 0.02% tween 20 and 400 uL of the working dilution of anti-ARNT added to rows A1-A12 and E1-E12 of the ELISA plate. 200 uL of PBS plus 0.02% tween 20 plus 0.1% bovine serum albumin was added to the remaining wells. […] After 2 hours the plate was washed as before and working dilution (1:1000) of anti-rabbit/alkaline phosphatase conjugate was added to all wells. The plate was incubated for a further 1 hour at room temperature with gentle rocking and then washed as before. PnPP stock was added to each well (200 uL) and the plate was incubated for 1 hour, at which time it was read at 405 nm in an ELISA plate reader and milli O.D. recorded.

## Clc1cc2c(cc1Cl)Oc1cc(Cl)c(Cl)cc1O2 [TCDD, 2,3,7,8-tetrachlorodibenzo-p-dioxin]
[1]; sample B (TCDD) vs sample A (DMSO), anti-ARNT blot
  ARNT band in size exclusion fraction 3: showed a band at the size of ARNT (circa 97 kD) that was absent in fraction 3 of sample A
[1]; sample D (TCDD) vs sample C (DMSO), anti-rabbit blot
  rabbit IgG light chain (anti-ARNT) band in size exclusion fraction 5: showed a band at the size of rabbit IgG light chain (circa 25 kD) that was absent in fraction 5 of sample C
[2]; Example 7 conclusion
  response in sandwich ELISA: gives a differential response
[2]; anti-ARNT dilution 0.000625, DRE dilution 0.002, TCDD (+)
  O.D. at 405 nm: 463 milli O.D.
[2]; anti-ARNT dilution 0.000625, DRE dilution 0.004, TCDD (+)
  O.D. at 405 nm: 595 milli O.D.
[2]; anti-ARNT dilution 0.000625, DRE dilution 0.008, TCDD (+)
  O.D. at 405 nm: 726 milli O.D.
[2]; anti-ARNT dilution 0.000625, DRE dilution 0.016, TCDD (+)
  O.D. at 405 nm: 639 milli O.D.
[2]; anti-ARNT dilution 0.000625, DRE dilution 0.031, TCDD (+)
  O.D. at 405 nm: 562 milli O.D.
[2]; anti-ARNT dilution 0.000625, DRE dilution 0.063, TCDD (+)
  O.D. at 405 nm: 480 milli O.D.
[2]; anti-ARNT dilution 0.000625, DRE dilution 0.125, TCDD (+)
  O.D. at 405 nm: 411 milli O.D.
[2]; anti-ARNT dilution 0.000625, DRE dilution 0.25, TCDD (+)
  O.D. at 405 nm: 392 milli O.D.
[2]; anti-ARNT dilution 0.000625, DRE dilution 0.5, TCDD (+)
  O.D. at 405 nm: 393 milli O.D.
[2]; anti-ARNT dilution 0.000625, DRE dilution 1, TCDD (+)
  O.D. at 405 nm: 408 milli O.D.
[2]; anti-ARNT dilution 0.000625, DRE dilution 1E-03, TCDD (+)
  O.D. at 405 nm: 442 milli O.D.
[2]; anti-ARNT dilution 0.000625, DRE dilution 5E-04, TCDD (+)
  O.D. at 405 nm: 480 milli O.D.
[2]; anti-ARNT dilution 0.00125, DRE dilution 0.002, TCDD (+)
  O.D. at 405 nm: 595 milli O.D.
[2]; anti-ARNT dilution 0.00125, DRE dilution 0.004, TCDD (+)
  O.D. at 405 nm: 932 milli O.D.
[2]; anti-ARNT dilution 0.00125, DRE dilution 0.008, TCDD (+)
  O.D. at 405 nm: 1070 milli O.D.
[2]; anti-ARNT dilution 0.00125, DRE dilution 0.016, TCDD (+)
  O.D. at 405 nm: 916 milli O.D.
[2]; anti-ARNT dilution 0.00125, DRE dilution 0.031, TCDD (+)
  O.D. at 405 nm: 767 milli O.D.
[2]; anti-ARNT dilution 0.00125, DRE dilution 0.063, TCDD (+)
  O.D. at 405 nm: 537 milli O.D.
[2]; anti-ARNT dilution 0.00125, DRE dilution 0.125, TCDD (+)
  O.D. at 405 nm: 487 milli O.D.
[2]; anti-ARNT dilution 0.00125, DRE dilution 0.25, TCDD (+)
  O.D. at 405 nm: 406 milli O.D.
[2]; anti-ARNT dilution 0.00125, DRE dilution 0.5, TCDD (+)
  O.D. at 405 nm: 393 milli O.D.
[2]; anti-ARNT dilution 0.00125, DRE dilution 1, TCDD (+)
  O.D. at 405 nm: 387 milli O.D.
[2]; anti-ARNT dilution 0.00125, DRE dilution 1E-03, TCDD (+)
  O.D. at 405 nm: 484 milli O.D.
[2]; anti-ARNT dilution 0.00125, DRE dilution 5E-04, TCDD (+)
  O.D. at 405 nm: 498 milli O.D.
[2]; anti-ARNT dilution 0.0025, DRE dilution 0.002, TCDD (+)
  O.D. at 405 nm: 922 milli O.D.
[2]; anti-ARNT dilution 0.0025, DRE dilution 0.004, TCDD (+)
  O.D. at 405 nm: 1281 milli O.D.
[2]; anti-ARNT dilution 0.0025, DRE dilution 0.008, TCDD (+)
  O.D. at 405 nm: 1682 milli O.D.
[2]; anti-ARNT dilution 0.0025, DRE dilution 0.016, TCDD (+)
  O.D. at 405 nm: 1486 milli O.D.
[2]; anti-ARNT dilution 0.0025, DRE dilution 0.031, TCDD (+)
  O.D. at 405 nm: 1125 milli O.D.
[2]; anti-ARNT dilution 0.0025, DRE dilution 0.063, TCDD (+)
  O.D. at 405 nm: 804 milli O.D.
[2]; anti-ARNT dilution 0.0025, DRE dilution 0.125, TCDD (+)
  O.D. at 405 nm: 608 milli O.D.
[2]; anti-ARNT dilution 0.0025, DRE dilution 0.25, TCDD (+)
  O.D. at 405 nm: 532 milli O.D.
[2]; anti-ARNT dilution 0.0025, DRE dilution 0.5, TCDD (+)
  O.D. at 405 nm: 544 milli O.D.
[2]; anti-ARNT dilution 0.0025, DRE dilution 1, TCDD (+)
  O.D. at 405 nm: 585 milli O.D.
[2]; anti-ARNT dilution 0.0025, DRE dilution 1E-03, TCDD (+)
  O.D. at 405 nm: 680 milli O.D.
[2]; anti-ARNT dilution 0.0025, DRE dilution 5E-04, TCDD (+)
  O.D. at 405 nm: 722 milli O.D.
[2]; anti-ARNT dilution 0.005, DRE dilution 0.002, TCDD (+)
  O.D. at 405 nm: 1524 milli O.D.
[2]; anti-ARNT dilution 0.005, DRE dilution 0.004, TCDD (+)
  O.D. at 405 nm: 2029 milli O.D.
[2]; anti-ARNT dilution 0.005, DRE dilution 0.008, TCDD (+)
  O.D. at 405 nm: 2558 milli O.D.
[2]; anti-ARNT dilution 0.005, DRE dilution 0.016, TCDD (+)
  O.D. at 405 nm: 2122 milli O.D.
[2]; anti-ARNT dilution 0.005, DRE dilution 0.031, TCDD (+)
  O.D. at 405 nm: 1706 milli O.D.
[2]; anti-ARNT dilution 0.005, DRE dilution 0.063, TCDD (+)
  O.D. at 405 nm: 1202 milli O.D.
[2]; anti-ARNT dilution 0.005, DRE dilution 0.125, TCDD (+)
  O.D. at 405 nm: 963 milli O.D.
[2]; anti-ARNT dilution 0.005, DRE dilution 0.25, TCDD (+)
  O.D. at 405 nm: 777 milli O.D.
[2]; anti-ARNT dilution 0.005, DRE dilution 0.5, TCDD (+)
  O.D. at 405 nm: 765 milli O.D.
[2]; anti-ARNT dilution 0.005, DRE dilution 1, TCDD (+)
  O.D. at 405 nm: 771 milli O.D.
[2]; anti-ARNT dilution 0.005, DRE dilution 1E-03, TCDD (+)
  O.D. at 405 nm: 1070 milli O.D.
[2]; anti-ARNT dilution 0.005, DRE dilution 5E-04, TCDD (+)
  O.D. at 405 nm: 1191 milli O.D.

Reference: patent publication US6127136A, “Detection of dioxin-like compounds by detection of transformed Ah receptor/ARNT complex” (Paracelsian, Inc., priority 1996, dated 2000)
